# Measured values: patent US20220193063A1, “METABOLITES OF GLP1R AGONISTS” (Pfizer Inc., priority 2020, published 2022)
# How the values were obtained:
# [1] = tested on: male Wistar-Han rat hepatocytes; experiment: In vitro metabolism of Compound 1 in rat cryopreserved hepatocytes; assay type: in vitro ADME; details: 10 μM Compound 1, 7.5×10^5 cells/mL, 1 and 4 hrs composite sample, HPLC/UV/MS
# Protocol: (§1) Male CD-1 mouse hepatocytes (lot YHL), male Wistar-Han rat hepatocytes (Celsis; product number: M000065; lot: SLA), female New Zealand rabbit hepatocytes (lot 1510147), male cryopreserved cynomolgus monkey hepatocytes (Celsis; product number: M00305; lot: DNB) and mixed-gender cryopreserved human hepatocytes (Bioreclamation; product number: S01988; lot: DCM) were obtained for the hepatocyte in-vitro assessments.
# (§2) At time 0 hrs 550 μL aliquots were removed from incubations and quenched with 5 volumes of ACN containing 0.1% formic acid. At 1 and 4 hrs, 275 μL aliquots were removed and quenched as above; these were combined in the same tube to prepare a composite sample. For all hepatocyte experiments, samples were processed by centrifugation at 1900×g for 5 minutes, and then the supernatant was transferred to clean glass tubes and evaporated to dryness under a stream of N2 using a Turbovap at 37° C. Sample residues were reconstituted in mobile phase prior to analysis by HPLC/UV/MS^n.
# (§3) Samples were analyzed by HPLC/UV/MS^n using a Thermo Orbitrap Elite mass spectrometer in conjunction with a Thermo Open Accela UHPLC system. A 3.0×150 mm, 2.5 μm Acquity CSH C18 HPLC column (Waters) was heated to 45° C. for separation of analytes. The mobile phase was a gradient of A): water containing 0.1% formic acid, and B): acetonitrile. The flow rate was 450 μL/min, and the following gradient program was utilized: […]
# (§4) UV absorbance was monitored with a photo-diode array detector from 220-450 nm. The mass spectrometer was operated in positive-ion mode with a HESI ion source at a potential of 3.0 kV, and capillary and source heater temperatures of 380 and 300° C., respectively. Sheath, auxiliary, and sweep gas flows were set to 45, 10, and 2 units, respectively. Full scan mass spectra were acquired over the range 120-1200 m/z at a resolving power of 30,000 (specified at m/z 400). Data-dependent MS^n spectra were acquired in an automated fashion at 15,000 resolving power using CID and HCD fragmentation with normalized collision energy settings of 28 and 65 V, respectively.
# (§5) Metabolites were characterized by comparisons of mass spectral fragmentation patterns with that of a Compound 1 standard. All HPLC/UV/MS^n data were processed using Xcalibur v. 2.2, and integrated UV peak areas were subjected to weighted UV binning procedures utilizing an Excel template.
# [2] = tested on: Male CD-1 mouse hepatocytes; experiment: In vitro metabolism of Compound 1 in mouse cryopreserved hepatocytes; assay type: in vitro ADME; details: 10 μM Compound 1, 7.5×10^5 cells/mL, 1 and 4 hrs composite sample, HPLC/UV/MS
# Protocol: as §1, §2, §3, §4, §5
# human GLP-1R = human GLP-1R (Homo sapiens, UniProt P43220, L260F); experiment: CHO GLP-1R Clone C6 - Assay 2 (HTRF cAMP agonist assay, low receptor density)
# Chain of human GLP-1R (P43220 24-463 L260F): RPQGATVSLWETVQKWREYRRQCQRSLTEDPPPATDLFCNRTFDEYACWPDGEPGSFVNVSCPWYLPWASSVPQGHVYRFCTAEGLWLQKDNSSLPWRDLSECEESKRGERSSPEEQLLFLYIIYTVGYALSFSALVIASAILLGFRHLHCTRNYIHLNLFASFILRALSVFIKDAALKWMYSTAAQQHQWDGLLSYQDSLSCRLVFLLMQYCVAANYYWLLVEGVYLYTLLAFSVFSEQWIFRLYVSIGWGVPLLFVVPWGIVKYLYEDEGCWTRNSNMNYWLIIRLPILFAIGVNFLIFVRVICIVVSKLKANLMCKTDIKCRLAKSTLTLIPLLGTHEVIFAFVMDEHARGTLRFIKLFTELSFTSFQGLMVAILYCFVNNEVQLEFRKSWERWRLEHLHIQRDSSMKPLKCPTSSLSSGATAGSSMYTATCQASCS
# Protocol: GLP-1R-mediated agonist activity was determined with a cell-based functional assay utilizing an HTRF (Homogeneous Time-Resolved Fluorescence) cAMP detection kit (cAMP HI Range Assay Kit; Cis Bio cat #62AM6PEJ) that measures cAMP levels in the cell. The method is a competitive immunoassay between native cAMP produced by the cells and exogenous cAMP labeled with the dye d2. The tracer binding is visualized by a mAb anti-cAMP labeled with Cryptate. The specific signal (i.e. energy transfer) is inversely proportional to the concentration of cAMP in either a standard or an experimental sample. […]
# After 48 hours, the growth media was removed from the assay plate wells, and the cells were treated with 20 μL of the serially diluted compound in assay buffer for 30 minutes at 37° C. in a humidified environment (95% O2, 5% CO2). […] The plates were then incubated at room temperature and after 60 minutes, changes in the HTRF signal were read with an Envision 2104 multi-label plate reader using excitation of 330 nm and emissions of 615 and 665 nm. Raw data were converted to nM cAMP by interpolation from a cAMP standard curve (as described in the manufacturer's assay protocol) and the percent effect was determined relative to a saturating concentration of the full agonist GLP-1 (1 μM) included on each plate. […]
# [3] = tested on: human co-cultured hepatocytes (Hepatopack); experiment: In vitro metabolism of Compound 1 in human micropatterned co-cultured hepatocytes (Hepatopack); assay type: in vitro ADME; details: Compound 1 tris salt 20 μM, human MPCC hepatocytes, 0, 2 and 7 days
# Excerpt: Micro-patterned co-cultured (MPCC) hepatocyte 24-well plates containing human donors (16 wells each) were provided by Ascendance Biotechnology (formerly Hepregen Corp. (Medford, Mass.). [see Wang W W W, Khetani S R, Krzyzewski S, et al. Assessment of a Micropatterned Hepatocyte Coculture System to Generate Major Human Excretory and Circulating Drug Metabolites. Drug Metab Dispos 2010; 38(10):1900-51 The MPCCs were created at Ascendance Biotechnology and maintained in serum containing medium for 5-6 days to allow for stabilization of the co-cultures prior to shipment. A mixed-gender cryopreserved pool of 10 human donors (X008001-P; lot YFA) was used to seed the plates and was purchased from BioreclamationlVT (Westbury, N.Y.). MPCC hepatocytes are plated with fibroblasts in a 1:3 ratio with ˜25,000 hepatocytes/well in a 24-well plate. 24-Well MPCC plates were shipped to Pfizer, fresh medium (400 μL/well) was applied and cultures were kept at 37° C. with […] and 95% relative humidity for two days. Micropatterned co-cultures containing pooled hepatocytes were allowed 7 days to fully stabilize with respect to liver-specific functions. […] At respective time points (0, 2, and 7 days), the culture medium was removed and mixed with 4 volumes of ACN, then stored frozen at −40° C. until samples could be analyzed. Samples were subsequently processed by the addition of 2.5 mL of 1:1 ACN:MeOH containing 0.1% formic acid. After vortexing, the samples were centrifuged at 1900×g for 5 min, then the supernatant was transferred to 15 mL conical tubes and evaporated under N2 using a Turbovap set at 37° C. The residues were reconstituted in mobile phase (5:95 v:v ACN:0.1% aqueous formic acid) prior to analysis by HPLC/UV/MS^n.
# as §3
# as §4, with “Data-dependent MS^n spectra were acquired in an automated fashion at 15,000 resolving power using CID and HCD fragmentation with normalized collision energy settings of 28 and 65 V, respectively.” left out
# [4] = tested on: female New Zealand rabbit hepatocytes; experiment: In vitro metabolism of Compound 1 in rabbit cryopreserved hepatocytes; assay type: in vitro ADME; details: 10 μM Compound 1, 7.5×10^5 cells/mL, 1 and 4 hrs composite sample, HPLC/UV/MS
# Protocol: as §1, §2, §3, §4, §5
# [5] = tested on: mixed-gender cryopreserved human hepatocytes; experiment: In vitro metabolism of Compound 1 in human cryopreserved hepatocytes; assay type: in vitro ADME; details: 10 μM Compound 1, 7.5×10^5 cells/mL, 1 and 4 hrs composite sample, HPLC/UV/MS
# Protocol: as §1, §2, §3, §4, §5
# [6] = Metabolites of Compound 1 in rat bile following a 1.0 mg/kg IV bolus dose (bile duct cannulated rat); assay type: in vivo; details: 1.0 mg/kg IV bolus dose of Compound 1, pooled bile 0-24 hrs, bile duct cannulated male rats
# Protocol: (§6) Plasma and bile samples were obtained from a bile duct cannulated rat experiment (Study PK-0111) in which a 1.0 mg/kg IV bolus dose was administered to fed male rats (N=3). No control plasma was available from this experiment.
# Bile samples (0-3, 3-7, and 7-24 hrs) from individual animals were pooled in proportion to the amount collect in each interval. Then 0.5 mL of each individual pool was combined to prepare a composite sample for analysis.
# (§7) Pooled plasma and bile samples were extracted with ACN containing 0.1% formic acid, and after centrifugation at 1900×g, the supernatant was transferred to clean tubes and evaporated under N2 in a Turbovap set at 37° C. Residues were reconstituted in mobile phase (5:95 v:v ACN:0.1% aqueous formic acid) prior to analysis by HPLC/UV/MS^n.
# as §3, §4, §5
# [7] = Circulating metabolites of Compound 1 in rat plasma following a 1.0 mg/kg IV bolus dose; assay type: in vivo; details: 1.0 mg/kg IV bolus dose of Compound 1, pooled plasma 0.033-24 hrs, male rats
# Protocol: as §6
# Clin Pharmacol Ther 1981; 29(3):408-13]. The entire volume of each replicate Hamilton pool was combined to create a single pooled sample (576 μL) for analysis.
# as §7, §3, §4, §5
# [8] = tested on: male cryopreserved cynomolgus monkey hepatocytes; experiment: In vitro metabolism of Compound 1 in monkey cryopreserved hepatocytes; assay type: in vitro ADME; details: 10 μM Compound 1, 7.5×10^5 cells/mL, 1 and 4 hrs composite sample, HPLC/UV/MS
# Protocol: as §1, §2, §3, §4, §5
smiles,measurement,setting,value
C[C@]1(c2ccc(Cl)cn2)Oc2cccc(C3CCN(Cc4nc5ccc(C(=O)O[C@@H]6O[C@H](C(=O)O)[C@@H](O)[C@H](O)[C@H]6O)cc5n4C[C@@H]4CCO4)CC3)c2O1 [Metabolite 751b],metabolite of Compound 1 observed in rat hepatocyte incubations,[1],observed
same,metabolite of Compound 1 observed in mouse hepatocyte incubations,[2],observed
same,EC50,human GLP-1R,170 nM
same,metabolite of Compound 1 observed in human Hepatopack system,[3],most abundant metabolites
same,metabolite of Compound 1 observed in rabbit hepatocyte incubations,[4],observed
same,metabolite of Compound 1 observed in human hepatocyte incubations,[5],observed
same,metabolite of Compound 1 observed in human hepatocyte incubations,[5]; listed as m/z 751b,most abundant metabolites
same,detected in rat bile,[6],observed
same,detected in rat bile,[6]; listed as m/z 751b,detected
same,detected in rat plasma,[7],observed
same,detected in rat plasma,[7]; listed as m/z 751b,detected
same,metabolite of Compound 1 observed in monkey hepatocyte incubations,[8],observed
